Assays:
IKZF1 = target: T1, IKZF1 (Homo sapiens, UniProt Q13422); experiment: IKZF1 Degradation Assay, HiBiT Method; format: cell-based; details: NCIH929 cells expressing HiBiT-tagged IKZF1, 6 hours, top concentration 10 μM
T1 construct: endogenously expressing IKZF1 with HiBiT fusion tag via CRISPR
Description: Assay 2. IKZF1 Degradation Assay, HiBiT Method
Selected compounds of this disclosure were tested in an IKZF1 degradation assay using the HiBiT Method.
RPMI no-phenol red medium and fetal bovine serum (FBS) were purchased from Gibco (Grand Island, NY, USA). Nano-Glo® HiBiT Lytic Assay System was purchased from Promega (Madison, WI, USA). […] Cell culture flasks and 384-well microplates were acquired from VWR (Radnor, PA, USA).
IKZF1 degradation was determined based on quantification of luminescent signal using Nano-Glo® HiBiT Lytic Assay kit. […] NCIH929 cells expressing HiBiT-tagged IKZF1 were added into 384-well plates in RPMI medium containing 10% FBS and 0.05 mM 2-mercaptoethanol at a cell density of 15000 cells per well. The plates were kept at 37° C. with 5% CO2 for 6 hours. Cells treated in the absence of the test compound were the negative control and wells containing media only were the positive control. After 6-hour incubation, Nano-Glo® HiBiT Lytic Assay reagents were added to the designated wells. Luminescence was acquired on EnVision® Multilabel Reader (PerkinElmer, Santa Clara, CA, USA).

IRAK4 = target: T2, IRAK4 (Homo sapiens, UniProt Q9NWZ3); experiment: IRAK4 Degradation Assay, HiBiT Method; format: cell-based; details: 293T cells expressing HiBiT-tagged IRAK4, 6 hours
T2 construct: 293Tcells expressing HiBiT-tagged IRAK4 were then added into 384-well plates
T2 sequence (Q9NWZ3 1-460): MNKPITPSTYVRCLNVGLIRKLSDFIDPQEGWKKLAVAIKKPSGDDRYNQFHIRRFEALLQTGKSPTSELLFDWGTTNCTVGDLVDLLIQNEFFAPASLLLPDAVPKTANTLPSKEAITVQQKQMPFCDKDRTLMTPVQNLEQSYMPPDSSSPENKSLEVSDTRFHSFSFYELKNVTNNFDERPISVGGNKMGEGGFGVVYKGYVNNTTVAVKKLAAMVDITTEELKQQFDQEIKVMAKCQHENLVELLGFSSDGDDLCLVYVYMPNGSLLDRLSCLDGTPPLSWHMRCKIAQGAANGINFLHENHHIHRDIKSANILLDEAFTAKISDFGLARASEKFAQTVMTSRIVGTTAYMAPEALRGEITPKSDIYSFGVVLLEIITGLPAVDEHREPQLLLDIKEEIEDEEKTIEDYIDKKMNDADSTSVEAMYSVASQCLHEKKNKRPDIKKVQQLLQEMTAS
How it was run: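 293T cells with HiBiT knocked in at the C-terminus of endogenous IRAK4, 10,000 per well, treated 6 h at 37 °C with an 11-point half-log series ([…]), in duplicate. Remaining IRAK4 read by Nano-Glo HiBiT lytic luminescence against DMSO-only and media-only controls.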

T1 sequence (Q96SW2 whole entry partner, the tested form may be a part): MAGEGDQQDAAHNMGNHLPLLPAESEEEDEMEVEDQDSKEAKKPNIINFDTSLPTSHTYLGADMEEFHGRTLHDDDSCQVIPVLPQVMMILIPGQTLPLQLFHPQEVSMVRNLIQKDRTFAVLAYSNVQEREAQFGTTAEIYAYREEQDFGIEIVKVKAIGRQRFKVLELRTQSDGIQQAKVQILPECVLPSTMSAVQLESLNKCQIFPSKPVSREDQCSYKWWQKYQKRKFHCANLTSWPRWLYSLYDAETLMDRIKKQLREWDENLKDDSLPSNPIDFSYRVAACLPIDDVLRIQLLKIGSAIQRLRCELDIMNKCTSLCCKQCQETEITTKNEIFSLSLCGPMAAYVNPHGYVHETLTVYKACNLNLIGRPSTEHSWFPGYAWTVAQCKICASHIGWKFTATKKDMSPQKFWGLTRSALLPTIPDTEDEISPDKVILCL
T1 sequence (Q16531 whole entry partner, the tested form may be a part): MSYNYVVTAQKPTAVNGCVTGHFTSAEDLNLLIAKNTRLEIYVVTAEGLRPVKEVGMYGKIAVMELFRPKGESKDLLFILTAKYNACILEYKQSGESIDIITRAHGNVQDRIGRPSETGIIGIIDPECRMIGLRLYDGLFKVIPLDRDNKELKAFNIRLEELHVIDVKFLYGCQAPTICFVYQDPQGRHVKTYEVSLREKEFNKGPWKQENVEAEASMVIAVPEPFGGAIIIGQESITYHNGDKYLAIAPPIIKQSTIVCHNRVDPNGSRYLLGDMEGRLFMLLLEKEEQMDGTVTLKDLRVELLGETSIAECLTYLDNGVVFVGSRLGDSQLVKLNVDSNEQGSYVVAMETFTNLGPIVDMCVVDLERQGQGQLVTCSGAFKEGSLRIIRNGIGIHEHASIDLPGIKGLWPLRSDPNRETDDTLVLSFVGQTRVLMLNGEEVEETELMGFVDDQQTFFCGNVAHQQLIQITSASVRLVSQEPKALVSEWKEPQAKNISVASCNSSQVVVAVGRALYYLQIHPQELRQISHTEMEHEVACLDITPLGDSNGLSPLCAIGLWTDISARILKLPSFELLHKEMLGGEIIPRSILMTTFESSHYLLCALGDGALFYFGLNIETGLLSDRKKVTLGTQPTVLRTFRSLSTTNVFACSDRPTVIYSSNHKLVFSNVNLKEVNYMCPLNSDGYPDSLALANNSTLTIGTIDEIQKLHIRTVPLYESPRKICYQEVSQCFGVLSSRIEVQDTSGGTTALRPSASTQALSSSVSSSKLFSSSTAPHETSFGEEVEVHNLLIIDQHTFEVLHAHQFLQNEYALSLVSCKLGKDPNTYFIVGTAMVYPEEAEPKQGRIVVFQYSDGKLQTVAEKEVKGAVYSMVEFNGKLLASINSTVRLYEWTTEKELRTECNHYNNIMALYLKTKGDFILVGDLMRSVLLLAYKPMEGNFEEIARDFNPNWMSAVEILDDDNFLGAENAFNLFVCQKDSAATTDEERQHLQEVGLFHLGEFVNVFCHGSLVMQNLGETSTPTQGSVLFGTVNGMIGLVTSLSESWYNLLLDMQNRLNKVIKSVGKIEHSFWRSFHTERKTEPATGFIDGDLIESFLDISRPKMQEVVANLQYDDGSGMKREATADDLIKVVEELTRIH
T1 sequence (Q13422 whole entry, the tested form may be a part): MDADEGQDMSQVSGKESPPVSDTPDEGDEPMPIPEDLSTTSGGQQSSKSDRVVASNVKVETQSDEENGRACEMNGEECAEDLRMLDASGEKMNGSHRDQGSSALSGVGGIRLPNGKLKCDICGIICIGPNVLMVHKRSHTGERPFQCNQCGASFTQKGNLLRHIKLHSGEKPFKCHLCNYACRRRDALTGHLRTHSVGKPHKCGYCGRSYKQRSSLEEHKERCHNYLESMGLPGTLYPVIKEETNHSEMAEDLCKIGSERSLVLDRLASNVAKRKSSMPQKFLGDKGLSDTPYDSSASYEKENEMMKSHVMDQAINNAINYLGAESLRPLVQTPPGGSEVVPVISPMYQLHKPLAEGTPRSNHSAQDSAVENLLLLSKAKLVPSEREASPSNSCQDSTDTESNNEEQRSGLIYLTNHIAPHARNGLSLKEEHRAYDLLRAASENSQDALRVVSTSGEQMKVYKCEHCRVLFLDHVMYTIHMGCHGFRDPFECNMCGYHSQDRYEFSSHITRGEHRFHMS

SMILES	DC50 (IKZF1) [nM]	DC50 (IRAK4) [nM]
Cc1cnc2c(NC(=O)c3cc4cn([C@H]5CC[C@H](CN6CCC(c7ccc(C8CCC(=O)NC8=O)cc7F)CC6)CC5)nc4cc3OC(C)C)cnn2c1 (some centres unmarked) [Example 114, 2-((1r,4r)-4-((4-(4-(2,6-dioxopiperidin-3-yl)-2-fluorophenyl)piperidin-1-yl)methyl)cyclohexyl)-6-isopropoxy-N-(6-methylpyrazolo[1,5-a]pyrimidin-3-yl)-2H-indazole-5-carboxamide]	> 10000	10 to 100
CC(C)Oc1cc2nn([C@H]3CC[C@H](CN4CCC(c5ccc(OC6CCC(=O)NC6=O)cc5)CC4)CC3)cc2cc1C(=O)Nc1cnn2cccnc12 (some centres unmarked) [Example 115, 2-((1r,4r)-4-((4-(4-((2,6-dioxopiperidin-3-yl)oxy)phenyl)piperidin-1-yl)methyl)cyclohexyl)-6-isopropoxy-N-(pyrazolo[1,5-a]pyrimidin-3-yl)-2H-indazole-5-carboxamide]	> 10000	< 10
CC(C)Oc1cc2nn([C@H]3CC[C@H](CN4CCN(c5ccc(C6CCC(=O)NC6=O)cn5)CC(O)C4)CC3)cc2cc1C(=O)Nc1cccn([C@H]2C[C@H]2F)c1=O (stereo partly drawn) [Example 120, 2-((1r,4S)-4-((4-(5-(2,6-dioxopiperidin-3-yl)pyridin-2-yl)-6-hydroxy-1,4-diazepan-1-yl)methyl)cyclohexyl)-N-(1-((1S,2R)-2-fluorocyclopropyl)-2-oxo-1,2-dihydropyridin-3-yl)-6-isopropoxy-2H-indazole-5-carboxamide]	> 10000	< 10
CC(C)Oc1cc2nn([C@H]3CC[C@H](CN4CC5(CCN(c6ncc(C7CCC(=O)NC7=O)cc6F)CC5)C4)CC3)cc2cc1C(=O)Nc1cccn([C@H]2C[C@H]2F)c1=O (stereo partly drawn) [Example 121, 2-((1r,4S)-4-((7-(5-(2,6-dioxopiperidin-3-yl)-3-fluoropyridin-2-yl)-2,7-diazaspiro[3.5]nonan-2-yl)methyl)cyclohexyl)-N-(1-((1S,2R)-2-fluorocyclopropyl)-2-oxo-1,2-dihydropyridin-3-yl)-6-isopropoxy-2H-indazole-5-carboxamide]	> 10000	< 10
CC(C)Oc1cc2nn([C@H]3CC[C@H](CN4CCC(c5ccc6c(c5)n(C)c(=O)n6C5CCC(=O)NC5=O)C(F)(F)C4)CC3)cc2cc1C(=O)Nc1cccn([C@H]2C[C@H]2F)c1=O (stereo partly drawn) [Example 122, 2-((1r,4S)-4-((4-(1-(2,6-dioxopiperidin-3-yl)-3-methyl-2-oxo-2,3-dihydro-1H-benzo[d]imidazol-5-yl)-3,3-difluoropiperidin-1-yl)methyl)cyclohexyl)-N-(1-((1S,2R)-2-fluorocyclopropyl)-2-oxo-1,2-dihydropyridin-3-yl)-6-isopropoxy-2H-indazole-5-carboxamide]	> 10000	< 10
CC(C)Oc1cc2nn([C@H]3CC[C@H](CN4CCC(c5ccc6c(c5)n(C)c(=O)n6C5CCC(=O)NC5=O)C(F)(F)C4)CC3)cc2cc1C(=O)Nc1cnn2cccnc12 (some centres unmarked) [Example 123, 2-((1r,4r)-4-((4-(1-(2,6-dioxopiperidin-3-yl)-3-methyl-2-oxo-2,3-dihydro-1H-benzo[d]imidazol-5-yl)-3,3-difluoropiperidin-1-yl)methyl)cyclohexyl)-6-isopropoxy-N-(pyrazolo[1,5-a]pyrimidin-3-yl)-2H-indazole-5-carboxamide]	> 10000	< 10
CC(C)Oc1cc2nn([C@H]3CC[C@H](CNC4CCN(c5ncc(C6CCC(=O)NC6=O)cc5F)CC4)CC3)cc2cc1C(=O)Nc1cccn(C2CC2)c1=O (some centres unmarked) [Example 125, N-(1-cyclopropyl-2-oxo-1,2-dihydropyridin-3-yl)-2-((1r,4r)-4-(((1-(5-(2,6-dioxopiperidin-3-yl)-3-fluoropyridin-2-yl)piperidin-4-yl)amino)methyl)cyclohexyl)-6-isopropoxy-2H-indazole-5-carboxamide]	> 10000	< 10
CC(C)Oc1cc2nn([C@H]3CC[C@H](CN4CCOC[C@H]4Cc4ccc(OC5CCC(=O)NC5=O)cc4)CC3)cc2cc1C(=O)Nc1cccn([C@H]2C[C@H]2F)c1=O (stereo partly drawn) [Example 128, 2-((1R,4S)-4-(((3R)-3-(4-((2,6-dioxopiperidin-3-yl)oxy)benzyl)morpholino)methyl)cyclohexyl)-N-(1-((1S,2R)-2-fluorocyclopropyl)-2-oxo-1,2-dihydropyridin-3-yl)-6-isopropoxy-2H-indazole-5-carboxamide]	> 10000	< 10
CC(C)Oc1cc2nn([C@H]3CC[C@H](CN4CC[C@@H](c5ccc6c(C7CCC(=O)NC7=O)nn(C)c6c5)[C@H](O)C4)CC3)cc2cc1C(=O)Nc1cccn([C@H]2C[C@H]2F)c1=O (stereo partly drawn) [Example 129, 2-((1S,4S)-4-(((3S,4S)-4-(3-(2,6-dioxopiperidin-3-yl)-1-methyl-1H-indazol-6-yl)-3-hydroxypiperidin-1-yl)methyl)cyclohexyl)-N-(1-((1S,2R)-2-fluorocyclopropyl)-2-oxo-1,2-dihydropyridin-3-yl)-6-isopropoxy-2H-indazole-5-carboxamide]	> 10000	< 10
CC(C)Oc1cc2nn(C3CCN(C(=O)CC4CCN(c5ccc(C6CCC(=O)NC6=O)cn5)CC4)CC3)cc2cc1C(=O)Nc1cnn2cccnc12 (centres unmarked) [Example 147, 2-(1-(2-(1-(5-(2,6-dioxopiperidin-3-yl)pyridin-2-yl)piperidin-4-yl)acetyl)piperidin-4-yl)-6-isopropoxy-N-(pyrazolo[1,5-a]pyrimidin-3-yl)-2H-indazole-5-carboxamide]	> 10000	< 10
CC(C)Oc1cc2nn(C3CCN(C(=O)CC4(O)CCN(c5cnc6c(c5)n(C)c(=O)n6C5CCC(=O)NC5=O)CC4)CC3)cc2cc1C(=O)Nc1cccn([C@H]2C[C@H]2F)c1=O (stereo partly drawn) [Example 153, 2-(1-(2-(1-(3-(2,6-dioxopiperidin-3-yl)-1-methyl-2-oxo-2,3-dihydro-1H-imidazo[4,5-b]pyridin-6-yl)-4-hydroxypiperidin-4-yl)acetyl)piperidin-4-yl)-N-(1-((1S,2R)-2-fluorocyclopropyl)-2-oxo-1,2-dihydropyridin-3-yl)-6-isopropoxy-2H-indazole-5-carboxamide]	> 10000	10 to 100
CC(C)Oc1cc2nc(C3CCN(C(=O)CC4CCN(c5ccc(C6CCC(=O)NC6=O)cn5)CC4)CC3)cn2cc1C(=O)Nc1cnn2cccnc12 (centres unmarked) [Example 159, 2-(1-(2-(1-(5-(2,6-dioxopiperidin-3-yl)pyridin-2-yl)piperidin-4-yl)acetyl)piperidin-4-yl)-7-isopropoxy-N-(pyrazolo[1,5-a]pyrimidin-3-yl)imidazo[1,2-a]pyridine-6-carboxamide]	> 10000	< 10
CC(C)Oc1cc2nc(C3CCN(C(=O)CC4CCN(c5ncc(C6CCC(=O)NC6=O)cc5F)CC4)CC3)cn2cc1C(=O)Nc1cnn2cccnc12 (centres unmarked) [Example 162, 2-(1-(2-(1-(5-(2,6-dioxopiperidin-3-yl)-3-fluoropyridin-2-yl)piperidin-4-yl)acetyl)piperidin-4-yl)-7-isopropoxy-N-(pyrazolo[1,5-a]pyrimidin-3-yl)imidazo[1,2-a]pyridine-6-carboxamide]	> 10000	10 to 100
